From ChEMBL document CHEMBL1152717, “Discovery of mu-opioid selective ligands derived from 1-aminotetralin scaffolds made via metal-catalyzed ring-opening reactions” (Bioorg Med Chem Lett, 2009)

Assays:
[1] = target: Kappa-type opioid receptor (Homo sapiens, UniProt P41145); assay: Displacement of [125I]U69593 from human cloned kappa opioid receptor
[2] = target: Delta-type opioid receptor (Homo sapiens, UniProt P41143); assay: Displacement of [125I]deltorphin 2 from human cloned delta opioid receptor
Mu-type opioid receptor [3] = target: T1, Mu-type opioid receptor (Homo sapiens, UniProt P35372); assay: Displacement of [125I]FK33824 from human cloned mu opioid receptor
Mu-type opioid receptor [4] = target: T1, Mu-type opioid receptor; settings: at 100 µM
Description: Intrinsic activity at human cloned mu opioid receptor at 100 uM by [35S]GTPgammaS binding assay relative to DAMGO

Mu-type opioid receptor [5] = target: T1, Mu-type opioid receptor; assay: Agonist activity at human cloned mu opioid receptor by [35S]GTPgammaS binding assay; type: functional

Chain of Delta-type opioid receptor (P41143 whole entry): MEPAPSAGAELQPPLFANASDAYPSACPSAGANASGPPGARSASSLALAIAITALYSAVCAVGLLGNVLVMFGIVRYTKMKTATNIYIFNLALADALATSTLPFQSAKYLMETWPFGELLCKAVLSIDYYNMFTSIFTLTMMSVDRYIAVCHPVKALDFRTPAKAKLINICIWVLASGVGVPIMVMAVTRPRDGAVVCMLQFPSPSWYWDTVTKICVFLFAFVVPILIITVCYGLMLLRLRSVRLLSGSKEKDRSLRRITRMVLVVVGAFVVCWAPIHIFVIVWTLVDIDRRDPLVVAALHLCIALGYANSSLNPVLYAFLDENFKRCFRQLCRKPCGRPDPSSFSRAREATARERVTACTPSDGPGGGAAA
Chain of Kappa-type opioid receptor (P41145 whole entry): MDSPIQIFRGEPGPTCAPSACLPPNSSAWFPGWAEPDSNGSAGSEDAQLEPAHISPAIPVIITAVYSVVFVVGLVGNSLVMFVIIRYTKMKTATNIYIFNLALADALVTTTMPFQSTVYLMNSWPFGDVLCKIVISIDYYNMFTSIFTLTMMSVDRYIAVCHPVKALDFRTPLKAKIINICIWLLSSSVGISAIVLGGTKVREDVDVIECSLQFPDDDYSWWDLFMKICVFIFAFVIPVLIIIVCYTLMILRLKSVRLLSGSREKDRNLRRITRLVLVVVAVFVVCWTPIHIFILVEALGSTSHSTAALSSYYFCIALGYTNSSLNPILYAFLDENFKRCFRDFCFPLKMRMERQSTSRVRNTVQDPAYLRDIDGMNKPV
T1 sequence (P35372 whole entry): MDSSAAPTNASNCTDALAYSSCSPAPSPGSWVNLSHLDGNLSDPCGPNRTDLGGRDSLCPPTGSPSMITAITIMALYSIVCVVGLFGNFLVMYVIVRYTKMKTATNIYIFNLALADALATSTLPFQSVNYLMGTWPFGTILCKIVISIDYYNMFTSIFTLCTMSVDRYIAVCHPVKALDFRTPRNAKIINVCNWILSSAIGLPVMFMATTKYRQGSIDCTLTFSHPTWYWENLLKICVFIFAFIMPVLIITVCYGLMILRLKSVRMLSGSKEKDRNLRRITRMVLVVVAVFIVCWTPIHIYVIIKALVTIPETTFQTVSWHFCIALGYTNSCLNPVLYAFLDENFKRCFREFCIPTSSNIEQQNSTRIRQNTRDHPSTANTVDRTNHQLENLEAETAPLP

SMILES | IC50 [1] [nM] | IC50 [2] [nM] | IC50 (Mu-type opioid receptor [3]) [nM] | Emax (Mu-type opioid receptor [4]) [%] | EC50 (Mu-type opioid receptor [5]) [nM]
COCCN(C(=O)c1sccc1Cl)[C@@H]1c2ccccc2C=C[C@H]1N1CCN(c2ccccc2)CC1 | 1320 | 1240 | 58 |  | 
COCCN(C(=O)c1sccc1Cl)[C@H]1c2ccccc2C=C[C@@H]1N1CCN(c2ccccc2)CC1 |  |  | 2800 |  | 
COCCN[C@@H]1c2ccccc2CC[C@H]1c1ccsc1 | 707 | 3800 |  |  | 
C[C@@]12CCCCC[C@@H](Cc3ccc(O)cc31)[C@@H]2N |  |  |  | 6 | 
COCCNC1c2ccccc2CCC1c1ccsc1 (racemic) | 2210 |  |  |  | 
COCCN(C(=O)COCc1ccccc1)C1c2ccccc2C=CC1N1CCN(c2ccccc2)CC1 (racemic) | > 10000 | 3890 | 211 | 10 | > 90000
COCCN(C(=O)Cc1cccc(OC)c1)C1c2ccccc2C=CC1N1CCN(c2ccccc2)CC1 (racemic) | > 10000 | 1470 | 151 | 10 | > 90000
COCCN(C(=O)Cc1ccc(Cl)cc1)C1c2ccccc2C=CC1N1CCN(c2ccccc2)CC1 (racemic) | 7990 | 1950 | 181 | 0 | > 90000
COCCN(C(=O)c1sccc1Cl)C1c2ccccc2C=CC1N1CCN(c2ccccc2)CC1 (racemic) | 7140 | 2290 | 100 | 0 | > 90000
COCCN(C(=O)c1ccc(Cl)c(Cl)c1)C1c2ccccc2C=CC1N1CCN(c2ccccc2)CC1 (racemic) | > 10000 | 3620 | 443 | 60 | > 90000
COCCN(C(=O)c1cc(C)nn1C)C1c2ccccc2CCC1c1ccsc1 (racemic) | > 10000 | 1270 | 4860 |  | 
